Test results as given in patent US20220031800A1, “PEPTIDES FOR TREATING NON-EXUDATIVE MACULAR DEGENERATION AND OTHER DISORDERS OF THE EYE” (Allegro Pharmaceuticals, LLC, priority 2019, published 2022).
Square brackets hold non-standard residues; d marks the D form. Peptide text beside a SMILES is read from it. Cya = N[C@@H](CS(=O)(=O)O)C(=O)O

Tests used:
[1] = test system: study eye of subjects with intermediate non-exudative AMD; test: Low-luminance visual acuity; format: in vivo, human
Description: Numerous study assessments were conducted at various time points throughout the study. Included among these study assessments were; refractive eye examinations, determinations of BCVA AND low-luminance BCVA, Lanthony D-15 color vision test, measurement of intraocular pressure (IOP), Indirect ophthalmoscopy/dilated fundus examinations and spectral-domain optical coherence tomography (SD-OCT). Also, blood and saliva samples were obtained from each subject for genetic analysis. The above-listed study assessments were performed at the time points indicated in Table 1, below: Table 10, below, summarizes low-luminescence visual acuity in the study subjects.

[2] = test system: study eye of subjects with intermediate non-exudative AMD; test: Best corrected visual acuity (BCVA, letters read) in Dry AMD study; format: in vivo, human; conditions: for Proportion of subjects with gain of at least 8 BCVA letters read: post hoc
Description: The subjects in Groups 1 and 2 received the following treatments: Thus, subjects in Group 1 received an initial sham injection in the study eye followed by a single 1 mg dose of risuteganib in the study eye. The subjects in Group 2 received a total of two (2) doses of risuteganib (1 mg per dose) in the study eye. Numerous study assessments were conducted at various time points throughout the study. Included among these study assessments were; refractive eye examinations, determinations of BCVA AND low-luminance BCVA, Lanthony D-15 color vision test, measurement of intraocular pressure (IOP), Indirect ophthalmoscopy/dilated fundus examinations and spectral-domain optical coherence tomography (SD-OCT). Also, blood and saliva samples were obtained from each subject for genetic analysis. The above-listed study assessments were performed at the time points indicated in Table 1, below: For this study, a primary efficacy endpoint was deemed to be the percentage of population with an improvement in BCVA of at least 8 letters (1.5 lines) BCVA.

[3] = test system: primary mouse retinal neuron cells; test: Trypan blue viability of primary mouse retinal neuron cells exposed to kainic acid; format: cell-based, CD1 mice; conditions: 1.0 mg/mL risuteganib alone
Description: Purpose: Investigate neuroprotective properties of risuteganib in primary mouse retinal neuron cells exposed to kainic acid, a neuroexcitatory compound that activates glutamate receptors, resulting in overstimulation and cell death.
Methods: Fresh retina were collected from CD1 mice and then mechanically dissociated with sterile Pasteur pipette. Cell suspensions were then dispensed into petri dish and incubated for 6 hours. Cells were then exposed to the experimental conditions: (1) untreated control, (2) 1.0 mg/mL risuteganib, (3) 500 μM kainic acid (KA), and (4) 1.0 mg/mL risuteganib for 24 hours before 500 μM kainic acid exposure. 8 hours after kainic acid treatment, dead and live cell numbers were measured using Trypan blue exclusion assay on a hemocytometer.

[4] = Week 12, Group 2 (1 mg IVT day 1 + wk 16)
[5] = Week 32, Group 1 crossover (sham day 1, 1 mg IVT wk 16)
[6] = Week 32, Group 2 (1 mg IVT day 1 + wk 16)
[7] = Week 32 change, Group 1 crossover (sham day 1, 1 mg IVT wk 16)
[8] = Week 32 change, Group 2 (1 mg IVT day 1 + wk 16)
[9] = Week 4, Group 2 (1 mg IVT day 1 + wk 16), subset gain ≥8 letters at any week, n = 14
[10] = Week 4, Group 2 (1 mg IVT day 1 + wk 16), subset gain ≥8 letters at primary endpoint week, n = 12
[11] = Week 8, Group 2 (1 mg IVT day 1 + wk 16), subset gain ≥8 letters at any week, n = 14
[12] = Week 8, Group 2 (1 mg IVT day 1 + wk 16), subset gain ≥8 letters at primary endpoint week, n = 12
[13] = Week 12, Group 2 (1 mg IVT day 1 + wk 16), subset gain ≥8 letters at any week, n = 14
[14] = Week 12, Group 2 (1 mg IVT day 1 + wk 16), subset gain ≥8 letters at primary endpoint week, n = 12
[15] = Week 16, Group 2 (1 mg IVT day 1 + wk 16), subset gain ≥8 letters at any week, n = 14
[16] = Week 16, Group 2 (1 mg IVT day 1 + wk 16), subset gain ≥8 letters at primary endpoint week, n = 12
[17] = Week 20, Group 1 crossover (sham day 1, 1 mg IVT wk 16), subset gain ≥8 letters at any week, n = 3
[18] = Week 20, Group 1 crossover (sham day 1, 1 mg IVT wk 16), subset gain ≥8 letters at primary endpoint week, n = 2
[19] = Week 20, Group 2 (1 mg IVT day 1 + wk 16), subset gain ≥8 letters at any week, n = 14
[20] = Week 20, Group 2 (1 mg IVT day 1 + wk 16), subset gain ≥8 letters at primary endpoint week, n = 12
[21] = Week 24, Group 1 crossover (sham day 1, 1 mg IVT wk 16), subset gain ≥8 letters at any week, n = 3
[22] = Week 24, Group 1 crossover (sham day 1, 1 mg IVT wk 16), subset gain ≥8 letters at primary endpoint week, n = 2
[23] = Week 24, Group 2 (1 mg IVT day 1 + wk 16), subset gain ≥8 letters at any week, n = 14
[24] = Week 24, Group 2 (1 mg IVT day 1 + wk 16), subset gain ≥8 letters at primary endpoint week, n = 12
[25] = Week 28, Group 1 crossover (sham day 1, 1 mg IVT wk 16), subset gain ≥8 letters at any week, n = 3
[26] = Week 28, Group 1 crossover (sham day 1, 1 mg IVT wk 16), subset gain ≥8 letters at primary endpoint week, n = 2
[27] = Week 28, Group 2 (1 mg IVT day 1 + wk 16), n = 25
[28] = Week 28, Group 2 (1 mg IVT day 1 + wk 16), subset gain ≥8 letters at any week, n = 14
[29] = Week 28, Group 2 (1 mg IVT day 1 + wk 16), subset gain ≥8 letters at primary endpoint week, n = 12
[30] = Week 28 vs baseline, Group 2 (1 mg IVT day 1 + wk 16), n = 25
[31] = Week 32, Group 1 crossover (sham day 1, 1 mg IVT wk 16), subset gain ≥8 letters at any week, n = 3
[32] = Week 32, Group 1 crossover (sham day 1, 1 mg IVT wk 16), subset gain ≥8 letters at primary endpoint week, n = 2
[33] = Week 32, Group 2 (1 mg IVT day 1 + wk 16), subset gain ≥8 letters at any week, n = 14
[34] = Week 32, Group 2 (1 mg IVT day 1 + wk 16), subset gain ≥8 letters at primary endpoint week, n = 12
[35] = risuteganib eyes with geographic atrophy in foveal center at baseline (n = 2)
[36] = risuteganib eyes with no geographic atrophy in foveal center at baseline (n = 23)

## C[C@@H](O)[C@H](NC(=O)[C@H](CS(=O)(=O)O)NC(=O)CNC(=O)[C@H](CCCNC(=N)N)NC(=O)CN)C(=O)N1CCC[C@H]1C(=O)O [risuteganib, Glycyl-L-arginylglycyl-3-sulfo-L-alanyl-L-threonyl-L-proline] (H-GRG[Cya]TP-OH)
[1]; [4]
  Low-luminance visual acuity letters read, mean: 46.4 letters read
  Low-luminance visual acuity letters read, median: 48.0 letters read
[1]; Week 12 change, Group 2 (1 mg IVT day 1 + wk 16)
  Low-luminance visual acuity change in letters read, median: −1.0 letters read
[1]; [5]
  Low-luminance visual acuity letters read, mean: 50.7 letters read
  Low-luminance visual acuity letters read, median: 57.0 letters read
[1]; [6]
  Low-luminance visual acuity letters read, mean: 49.4 letters read
  Low-luminance visual acuity letters read, median: 51.0 letters read
[1]; [7]
  Low-luminance visual acuity change in letters read, mean: 2.6 letters read
  Low-luminance visual acuity change in letters read, median: 3.0 letters read
[1]; [8]
  Low-luminance visual acuity change in letters read, mean: 2.0 letters read
  Low-luminance visual acuity change in letters read, median: 0.0 letters read
[2]; BCVA, after each 1 mg intravitreal dose
  Time of peak effect after treatment: 12 weeks
[2]; Group 2, GA Subgroup (GA in central 6-mm subfield)
  Proportion of subjects with gain of at least 8 BCVA letters read: 40%
[2]; Group 2, No GA Subgroup (no GA in central 6-mm subfield)
  Proportion of subjects with gain of at least 8 BCVA letters read: 80%
[2]; [9]
  BCVA change in letters read, mean: 4.0 letters read
  BCVA change in letters read, median: 3.0 letters read
  BCVA letters read, mean: 66.5 letters read
  BCVA letters read, median: 67.0 letters read
[2]; [10]
  BCVA change in letters read, mean: 4.1 letters read
  BCVA change in letters read, median: 3.0 letters read
  BCVA letters read, mean: 67.0 letters read
  BCVA letters read, median: 68.5 letters read
[2]; [11]
  BCVA change in letters read, mean: 5.8 letters read
  BCVA change in letters read, median: 5.5 letters read
  BCVA letters read, mean: 68.3 letters read
  BCVA letters read, median: 71.0 letters read
[2]; [12]
  BCVA change in letters read, mean: 5.6 letters read
  BCVA change in letters read, median: 5.5 letters read
  BCVA letters read, mean: 68.5 letters read
  BCVA letters read, median: 72.0 letters read
[2]; [13]
  BCVA change in letters read, mean: 7.1 letters read
  BCVA change in letters read, median: 5.5 letters read
  BCVA letters read, mean: 69.6 letters read
  BCVA letters read, median: 69.5 letters read
[2]; [14]
  BCVA change in letters read, mean: 7.7 letters read
  BCVA change in letters read, median: 5.5 letters read
  BCVA letters read, mean: 70.6 letters read
  BCVA letters read, median: 72.0 letters read
[2]; [15]
  BCVA change in letters read, mean: 6.4 letters read
  BCVA change in letters read, median: 8.0 letters read
  BCVA letters read, mean: 68.9 letters read
  BCVA letters read, median: 69.5 letters read
[2]; [16]
  BCVA change in letters read, mean: 6.3 letters read
  BCVA change in letters read, median: 8.0 letters read
  BCVA letters read, mean: 69.2 letters read
  BCVA letters read, median: 70.5 letters read
[2]; [17]
  BCVA change in letters read, mean: 2.0 letters read
  BCVA change in letters read, median: 0.0 letters read
  BCVA letters read, mean: 71.7 letters read
  BCVA letters read, median: 75.0 letters read
[2]; [18]
  BCVA change in letters read, mean: 0.0 letters read
  BCVA change in letters read, median: 0.0 letters read
  BCVA letters read, mean: 70.0 letters read
  BCVA letters read, median: 70.0 letters read
[2]; [19]
  BCVA change in letters read, mean: 9.8 letters read
  BCVA change in letters read, median: 10.0 letters read
  BCVA letters read, mean: 72.3 letters read
  BCVA letters read, median: 74.5 letters read
[2]; [20]
  BCVA change in letters read, mean: 11.3 letters read
  BCVA change in letters read, median: 10.0 letters read
  BCVA letters read, mean: 74.2 letters read
  BCVA letters read, median: 75.0 letters read
[2]; [21]
  BCVA change in letters read, mean: 8.7 letters read
  BCVA change in letters read, median: 10.0 letters read
  BCVA letters read, mean: 78.3 letters read
  BCVA letters read, median: 79.0 letters read
[2]; [22]
  BCVA change in letters read, mean: 8.0 letters read
  BCVA change in letters read, median: 8.0 letters read
  BCVA letters read, mean: 78.0 letters read
  BCVA letters read, median: 78.0 letters read
[2]; [23]
  BCVA change in letters read, mean: 10.2 letters read
  BCVA change in letters read, median: 9.5 letters read
  BCVA letters read, mean: 72.7 letters read
  BCVA letters read, median: 74.5 letters read
[2]; [24]
  BCVA change in letters read, mean: 11.4 letters read
  BCVA change in letters read, median: 10.0 letters read
  BCVA letters read, mean: 74.3 letters read
  BCVA letters read, median: 75.5 letters read
[2]; [25]
  BCVA change in letters read, mean: 8.0 letters read
  BCVA change in letters read, median: 9.0 letters read
  BCVA letters read, mean: 77.7 letters read
  BCVA letters read, median: 74.0 letters read
[2]; [26]
  BCVA change in letters read, mean: 9.5 letters read
  BCVA change in letters read, median: 9.5 letters read
  BCVA letters read, mean: 79.5 letters read
  BCVA letters read, median: 79.5 letters read
[2]; [27]
  BCVA letters read at primary endpoint week, mean: 70.5 letters read
  BCVA letters read at primary endpoint week, median: 71.0 letters read
[2]; [28]
  BCVA change in letters read, mean: 11.4 letters read
  BCVA change in letters read, median: 11.5 letters read
  BCVA letters read, mean: 73.9 letters read
  BCVA letters read, median: 74.5 letters read
[2]; [29]
  BCVA change in letters read, mean: 12.8 letters read
  BCVA change in letters read, median: 12.0 letters read
  BCVA letters read, mean: 75.7 letters read
  BCVA letters read, median: 75.5 letters read
[2]; [30]
  BCVA change in letters read at primary endpoint week, mean: 6.1 letters read
  BCVA change in letters read at primary endpoint week, median: 6.0 letters read
[2]; [31]
  BCVA change in letters read, mean: 6.3 letters read
  BCVA change in letters read, median: 6.0 letters read
  BCVA letters read, mean: 76.0 letters read
  BCVA letters read, median: 75.0 letters read
[2]; [32]
  BCVA change in letters read, mean: 6.5 letters read
  BCVA change in letters read, median: 6.5 letters read
  BCVA letters read, mean: 76.5 letters read
  BCVA letters read, median: 76.5 letters read
[2]; [33]
  BCVA change in letters read, mean: 8.2 letters read
  BCVA change in letters read, median: 9.5 letters read
  BCVA letters read, mean: 70.7 letters read
  BCVA letters read, median: 73.0 letters read
[2]; [34]
  BCVA change in letters read, mean: 9.5 letters read
  BCVA change in letters read, median: 10.5 letters read
  BCVA letters read, mean: 72.4 letters read
  BCVA letters read, median: 74.0 letters read
[2]; [35]
  ≥10 Letter Improvement in Visual Acuity, %: (50) %
  ≥15 Letter Improvement in Visual Acuity, %: (0) %
[2]; [36]
  ≥10 Letter Improvement in Visual Acuity, %: (30) %
  ≥15 Letter Improvement in Visual Acuity, %: (22) %
[3]
  Change in cell viability, treatment alone: did not induce detectable change in cell viability
